Reference: patent US7166296B2, “Pharmaceutical formulations and ligands for use therein; mimetics for UEA-1” (Sarlan, Ltd., priority 2001, dated 2007)
≈ marks a conversion by molar mass, not a printed value.

Key:
[1] = test system: UEA-1 binding sites on Caco-2 cell membrane preparations; experiment: Two tier competition assay: compound incubated alone with membranes, biotinylated UEA-1 added in next step; set-up: species or system human
Description: (§1) The epithelial cell binding ability of compounds and mixtures obtained from synthetic combinatorial libraries was determined by competition assays. These assays were set up to measure the inhibition of binding of biotinylated UEA-1 to membrane preparations of the epithelial cell line Caco-2 (colon carcinoma cells-2), by compounds and mixtures of the combinatorial libraries. This cell line is a conventional model for epithelial cells.
(§2) Two competition inhibition assays were used in this case, namely single tier and two tier assays. These assays differed from each other in that in the single tier assay, the mixtures/compounds and the biotinylated UEA-1 were incubated together with the Caco-2 cell membrane preparations, while in case of the two-tier assay, the mixture/compounds were allowed to incubate alone with the cell membranes in the absence of biotinylated UEA-1, which was added in the next step. Addition of the extra step in the two-tier assay was to ensure that the compounds inhibiting the binding of biotinylated UEA-1 to the Caco-2 cell membranes were doing so by themselves binding to surface receptors on the Caco-2 cells and not to the biotinylated UEA-1. Each assay will be described in detail.
(§3) • 1. Confluent Caco-2 cell monolayers (grown in 75 cm^2 flasks for up to 1 week at 37° C. and 5% CO2) were washed twice in Dulbecco's PBS (DPBS). • 2. Cell monolayers were treated with 10 mM EDTA-DPBS for 5–10 min at 37° C. and cells were harvested by centrifugation at 1000 rpm for 5 min. • 3. Cells were washed 3 times in DPBS. • 4. […] The cells were homogenised for 30 sec. • 6. The homogenates were centrifuged in hard walled tubes at 40,000 rpm for 45 min at 4° C. • 7. […] The supernatant was removed and stored on ice. The procedure was repeated adding the second supernatant to the first. • 8. The protein concentration was determined using e.g. a Bio-Rad protein assay. • 9. All fractions were stored at −80° C. prior to use. Single Tier Assays: • 1. 96-well microtiter plates were coated with membrane preparations of Caco-2 cells either by allowing them to incubate on the plates for 2½ hours at room temperature or by incubating them overnight at 4° C. 100 μl of 10 μg/ml (in 0.05 M carbonate buffer, pH 9.6) of membrane preparation was added to each well. • 2. The plates were flicked out, patted dry and blocked with bovine serum albumin (BSA)/DPBS (200 μl/well) for 1 to 4 hours at room temperature after which they were washed three times in water. • 3. […] Control wells were also set up in which the Caco-2 cell membrane preparations were incubated with unconjugated UEA-1. […] Following overnight incubation the plates were washed thoroughly (3–6 times). The plates were flicked out, patted dry and biotinylated UEA-1 was detected with commercial Streptavidin conjugated to horseradish peroxidase (HRP) (CalBiochem). […] The plates were left to incubate for an hour at room temperature. • 6. The plates were then washed 3–6 times and the biotin-streptavidin binding was detected by adding an HRP substrate OPD (orthophenyl diamine) to each well. 100 μl/well of this substrate at a final concentration of 1.6 mg/ml was added to each well. Before adding to the wells, this substrate was activated by addition of 50 μl of 3% H2O2 per plate and the reaction was allowed to develop in the dark. • 7. The reaction was stopped by adding 50 μl of 4 N H2SO4 to each well after approximately 5–10 minutes or when sufficient colour had developed. The OD490 (absorbance at 490 nm) of each well was measured using a conventional 96 well plate reading spectrophotometer. Two Tier Assays: • 1. 96 well plates were coated with Caco-2 cell membrane preparations in the same manner as described in the single tier assay. • 2. […] 100 μl at these final concentrations were added to each well. • 4. The plates were then left to incubate overnight, a step that would allow the mixtures and compounds to interact with the Caco-2 cell membranes without the presence of the competitor (biotinylated UEA-1) itself. • 5. […]

[2] = test system: UEA-1 binding sites on Caco-2 cell membrane preparations; experiment: Single tier competition assay: inhibition of biotinylated UEA-1 binding, compound and biotinylated UEA-1 incubated together; set-up: species or system human
Description: as §1, §2, §3

[3] = Table 8, galloyl constructs, read-out: IC 50 (uM) 2nd tier
[4] = library MSI 27, read-out: Two Tier Assay IC50
[5] = Table 8, galloyl constructs, read-out: IC 50 (uM) 1st tier (converted)
[6] = library MSI 27, read-out: Single Tier Assay IC50

SMILES	IC 50 (ug/ml) 2nd tier ([1]; Table 8, galloyl constructs) [µg/mL]	IC50 [1, 3] [µM]	Two Tier Assay IC50 ([1]; library MSI 27) [µg/mL]	IC50 [1, 4] [µM]	IC 50 (ug/ml) 1st tier ([2]; Table 8, galloyl constructs) [µg/mL]	IC50 [2, 5] [µM]	Single Tier Assay IC50 ([2]; library MSI 27) [µg/mL]	IC50 [2, 6] [µM]
NC(=O)C(CCCCNC(=O)C(CCCCNC(=O)c1cc(O)c(O)c(O)c1)NC(=O)c1cc(O)c(O)c(O)c1)NC(=O)C(CCCCNC(=O)c1cc(O)c(O)c(O)c1)NC(=O)c1cc(O)c(O)c(O)c1 (centres unmarked) [Cpd 22]	1 (≈ 0.99 µM)	1	2.86	2.84	10 (≈ 9.9 µM)	10	17.61	17.4
NC(=O)C(CCCCNC(=O)C(CCCCNC(=O)c1cc(O)cc(O)c1)NC(=O)c1cc(O)cc(O)c1)NC(=O)C(CCCCNC(=O)c1cc(O)cc(O)c1)NC(=O)c1cc(O)cc(O)c1 (centres unmarked) [Cpd 24]	–	–	–	265	–	–	–	265
CCOc1cc(C(=O)NCCCCC(NC(=O)C(CCCCNC(=O)c2cc(OCC)c(OCC)c(OCC)c2)NC(=O)c2cc(OCC)c(OCC)c(OCC)c2)C(N)=O)cc(OCC)c1OCC (centres unmarked) [Cpd 27]	–	–	–	255	–	–	–	255
COc1cc(C(=O)NCCCCC(NC(=O)C(CCCCNC(=O)c2cc(OC)c(OC)c(OC)c2)NC(=O)c2cc(OC)c(OC)c(OC)c2)C(N)=O)cc(OC)c1OC (centres unmarked) [Cpd 28]	–	–	–	292	–	–	–	292
NC(=O)C(CCCCNC(=O)c1cc(O)c(O)c(O)c1)NC(=O)C(CCCCNC(=O)c1cc(O)c(O)c(O)c1)NC(=O)c1cc(O)c(O)c(O)c1 (centres unmarked) [Cpd 30]	5 (≈ 6.85 µM)	7	8.36	11.5	14 (≈ 19.2 µM)	19	25.89	35.5
NC(=O)C(CCCCNC(=O)c1ccc(O)cc1)NC(=O)C(CCCCNC(=O)c1ccc(O)cc1)NC(=O)c1ccc(O)cc1 (centres unmarked) [Cpd 31]	–	–	–	395	–	–	–	395
NC(=O)C(CCCCNC(=O)c1cc(O)cc(O)c1)NC(=O)C(CCCCNC(=O)c1cc(O)cc(O)c1)NC(=O)c1cc(O)cc(O)c1 (centres unmarked) [Cpd 32]	–	–	–	367	–	–	–	367
COc1cc(C(=O)NCCCCC(NC(=O)C(CCCCNC(=O)c2cc(OC)c(O)c(OC)c2)NC(C)=O)C(N)=O)cc(OC)c1O (centres unmarked) [Cpd 33]	–	–	72.17	107	–	–	97.85	145
COc1ccc(C(=O)NCCCCC(NC(=O)C(CCCCNC(=O)c2ccc(OC)c(OC)c2)NC(C)=O)C(N)=O)cc1OC (centres unmarked) [Cpd 34]	–	–	87.01	135	–	–	121.40	189
CCOc1cc(C(=O)NCCCCC(NC(=O)C(CCCCNC(=O)c2cc(OCC)c(OCC)c(OCC)c2)NC(C)=O)C(N)=O)cc(OCC)c1OCC (centres unmarked) [Cpd 35]	–	–	–	317	–	–	–	317
COc1cc(C(=O)NCCCCC(NC(=O)C(CCCCNC(=O)c2cc(OC)c(OC)c(OC)c2)NC(C)=O)C(N)=O)cc(OC)c1OC (centres unmarked) [Cpd 36]	–	–	125.00	178	–	–	–	355
CC(=O)NC(CCCCNC(=O)c1cc(O)c(O)c(O)c1)C(=O)NC(CCCCNC(=O)c1cc(O)c(O)c(O)c1)C(N)=O (centres unmarked) [Cpd 38]	48 (≈ 77.5 µM)	77	54.27	87.6	54 (≈ 87.1 µM)	86	87.78	142
CC(=O)NC(CCCCNC(=O)c1ccc(O)cc1)C(=O)NC(CCCCNC(=O)c1ccc(O)cc1)C(N)=O (centres unmarked) [Cpd 39]	–	–	158.60	285	–	–	–	450
CC(=O)NC(CCCCNC(=O)c1cc(O)cc(O)c1)C(=O)NC(CCCCNC(=O)c1cc(O)cc(O)c1)C(N)=O (centres unmarked) [Cpd 40]	–	–	–	425	–	–	–	425
COc1cc(C(=O)NCCCCC(NC(=O)C(CCCCNC(=O)c2cc(OC)c(O)c(OC)c2)NC(=O)C(CCCCNC(=O)c2cc(OC)c(O)c(OC)c2)NC(=O)c2cc(OC)c(O)c(OC)c2)C(N)=O)cc(OC)c1O (centres unmarked) [Cpd 41]	–	–	83.26	74.2	–	–	89.77	80
COc1ccc(C(=O)NCCCC[C@@H](NC(=O)[C@@H](CCCCNC(=O)c2ccc(OC)c(OC)c2)NC(=O)[C@@H](CCCCNC(=O)c2ccc(OC)c(OC)c2)NC(=O)c2ccc(OC)c(OC)c2)C(N)=O)cc1OC [Cpd 42]	–	–	113.80	108	–	–	107.00	101
CCOc1cc(C(=O)NCCCC[C@@H](NC(=O)[C@@H](CCCCNC(=O)c2cc(OCC)c(OCC)c(OCC)c2)NC(=O)[C@@H](CCCCNC(=O)c2cc(OCC)c(OCC)c(OCC)c2)NC(=O)c2cc(OCC)c(OCC)c(OCC)c2)C(N)=O)cc(OCC)c1OCC [Cpd 43]	–	–	–	186	–	–	–	186
COc1cc(C(=O)NCCCC[C@@H](NC(=O)[C@@H](CCCCNC(=O)c2cc(OC)c(OC)c(OC)c2)NC(=O)[C@@H](CCCCNC(=O)c2cc(OC)c(OC)c(OC)c2)NC(=O)c2cc(OC)c(OC)c(OC)c2)C(N)=O)cc(OC)c1OC [Cpd 44]	–	–	–	212	–	–	–	212
NC(=O)C(CCCCNC(=O)c1cc(O)c(O)c(O)c1)NC(=O)C(CCCCNC(=O)c1cc(O)c(O)c(O)c1)NC(=O)C(CCCCNC(=O)c1cc(O)c(O)c(O)c1)NC(=O)c1cc(O)c(O)c(O)c1 (centres unmarked) [Cpd 46]	0.6 (≈ 0.594 µM)	0.6	2.00	1.98	8 (≈ 7.92 µM)	8	14.92	14.8
NC(=O)[C@@H](CCCCNC(=O)c1ccc(O)cc1)NC(=O)[C@@H](CCCCNC(=O)c1ccc(O)cc1)NC(=O)[C@@H](CCCCNC(=O)c1ccc(O)cc1)NC(=O)c1ccc(O)cc1 [Cpd 47]	–	–	–	283	–	–	–	283
NC(=O)[C@@H](CCCCNC(=O)c1cc(O)cc(O)c1)NC(=O)[C@@H](CCCCNC(=O)c1cc(O)cc(O)c1)NC(=O)[C@@H](CCCCNC(=O)c1cc(O)cc(O)c1)NC(=O)c1cc(O)cc(O)c1 [Cpd 48]	–	–	–	264	–	–	–	264
COc1cc(C(=O)NCCCCC(NC(=O)C(CCCCNC(=O)c2cc(OC)c(O)c(OC)c2)NC(=O)C(CCCCNC(=O)c2cc(OC)c(O)c(OC)c2)NC(C)=O)C(N)=O)cc(OC)c1O (centres unmarked) [Cpd 49]	–	–	108.80	111	–	–	118.00	120
